Assay results taken from article PMC12169614, “Exploring Long Arm Amide-Linked Side Chains in the Design of Antifungal Azole Inhibitors of Sterol 14α-Demethylase (CYP51)” (Journal of Medicinal Chemistry, 2025).

Assays:
[1] = test system: Y2301 ScCYP51 Y140F mutant; test: Agarose (disk) diffusion assay, strain Y2301; assay type: cell-based, S. cerevisiae; conditions: 10 nmol/disk, 30 °C, 48 h
Description: (§1) Final compounds were screened as racemic mixtures using agarose diffusion assays to visualize their inhibitory activity against a panel of recombinant S. cerevisiae strains i.e., S. cerevisiae strains expressing control levels of wild-type CYP51 (ScCYP51), overexpressed wild-type ScCYP51, overexpressed azole-resistant ScCYP51 Y140F/H mutations and overexpressed C. albicans efflux pumps MDR1a or CDR1B (Figure and Table S1).
(§2) The susceptibilities of S. cerevisiae and Candida species strains to azole compounds were observed as zones of growth inhibition in agarose diffusion assays. The disk diffusion assays were carried out as described by Keniya et al. Complete supplement mixture (CSM) agarose (0.6% agarose [wt/vol]; 20 mL of synthetic defined medium (SD); pH 6.8–7) was solidified in a rectangular Petri dish which was overlaid with CSM agarose (0.6% [wt/vol]; 5 mL; pH 6.8–7) seeded with yeast cells at an optical density (OD600) of 0.008 (118,000 cells per 1 mL of overlay). Azole compounds (10 nmol/disk) were applied to sterile BBL paper disks (Becton Dickinson Co., Sparks, MD) and placed on solidified overlays. Cell growth was assessed after incubation at 30 °C for 48 h.

[2] = test system: Y2513 ScCYP51 Y140H mutant; test: Agarose (disk) diffusion assay, strain Y2513; assay type: cell-based, S. cerevisiae; conditions: 10 nmol/disk, 30 °C, 48 h
Description: as §1, §2

Y433 OE CgCDR1 = test: MIC80 determination, strain Y433; assay type: cell-based, S. cerevisiae; conditions: Saccharomyces cerevisiae
Description: (§3) Cells were seeded at an OD600 nm of 0.005 (1.5 × 10^4 CFU), and the plates were incubated at 30 °C with shaking at 200 rpm for 48 h for S. cerevisiae strains and 24 h for C. albicans . Cell growth was assessed by measuring the OD600 nm using a Synergy 2 multimode plate reader (BioTek Instruments, VT, USA). Each MIC80 was determined using triplicate measurements for pools of 4 clones of each strain in three separate experiments.

Y2649 OE CYP51 F1 RaCPR = test: MIC80 determination, strain Y2649; assay type: cell-based, S. cerevisiae; conditions: for MIC: Rhizopus arrhizus, read-out: MIC (nM) R. arrhizus model Y2649; for MIC80: Saccharomyces cerevisiae
Description: as §3

2711 CnCYP51 OE CnCPR = test: MIC80 determination, strain 2711; assay type: cell-based, S. cerevisiae; conditions: for MIC80: Saccharomyces cerevisiae; for MIC: read-out: MIC (nM) C. neoformans model Y2711
Description: as §3

Y2716 OE CpCYP51 Y132F = test: MIC80 determination, strain Y2716; assay type: cell-based, S. cerevisiae; conditions: for increase in resistance owing to the CpCYP51 Y132F mutation: MIC80 Y2716 versus Y2721; for MIC80: Saccharomyces cerevisiae
Description: as §3

Y2459 OE CaCYP51 CaCpr = test: MIC80 determination, strain Y2459; assay type: cell-based, S. cerevisiae; conditions: for MIC80: Saccharomyces cerevisiae, 48 h, pH 6.8; for MIC: read-out: MIC (nM) C. albicans model Y2459
Description: as §3

Y610 FHB1 = test: MIC80 determination, C. albicans clinical isolate Y610 FHB1; assay type: cell-based; conditions: Candida albicans; C. albicans clinical isolate Y610 FHB1 (weakly expresses CaCDR1); pH 7, 24 h
Description: as §3

Y2300 OE ScCYP51 = test: MIC80 determination, strain Y2300; assay type: cell-based, S. cerevisiae; conditions: Saccharomyces cerevisiae; for MIC80: 48 h, pH 6.8; for MIC: read-out: MIC (nM) S. cerevisiae Y2300
Description: as §3

Y611 FHB3 = test: MIC80 determination, C. albicans clinical isolate Y611 FHB3; assay type: cell-based; conditions: Candida albicans, 24 h, pH 7
Description: as §3

Y2374 OE CgCYP51 = test: MIC80 determination, strain Y2374; assay type: cell-based, S. cerevisiae; conditions: Saccharomyces cerevisiae; for MIC: read-out: MIC (nM) C. glabrate model Y2374
Description: as §3

Y71 SC5314 = test: MIC80 determination, C. albicans clinical isolate Y71 SC5314; assay type: cell-based; conditions: Candida albicans; for MIC: SC5314, supplement csv; for MIC80: C. albicans clinical isolate Y71 SC5314, pH 7, 24 h
Description: as §3

Y570 OE CaCDR1B = test: MIC80 determination, strain Y570; assay type: cell-based, S. cerevisiae; conditions: for MIC: Candida albicans, read-out: MIC (nM) C. albicans model Y570; for MIC80: Saccharomyces cerevisiae, 48 h, pH 6.8
Description: as §3

Y2721 OE CpCYP51 = test: MIC80 determination, strain Y2721; assay type: cell-based, S. cerevisiae; conditions: for MIC80: Saccharomyces cerevisiae; for MIC: read-out: MIC (nM) C. parapsilosis model Y2721
Description: as §3

Y2651 OE CYP51 F5 RaCPR = test: MIC80 determination, strain Y2651; assay type: cell-based, S. cerevisiae; conditions: Saccharomyces cerevisiae
Description: as §3

[3] = test system: Y2747 OE AfCYP51B AfCPR AfERG6; test: MIC80 determination, strain Y2747; assay type: cell-based, S. cerevisiae; conditions: for MIC: Aspergillus fumigatus, read-out: MIC (nM) A. fumigatus model Y2747; for MIC80: Saccharomyces cerevisiae
Description: as §3

Y1 = test: MIC80 determination, C. albicans clinical isolate Y1; assay type: cell-based; conditions: Candida albicans, pH 7, 24 h
Description: as §3

Y2301 OE ScCYP51 Y140F = test: MIC80 determination, strain Y2301; assay type: cell-based, S. cerevisiae; conditions: Saccharomyces cerevisiae; for MIC80: 48 h, pH 6.8; for MIC: read-out: MIC (nM) S. cerevisiae Y2301
Description: as §3

Y2411 Endog. ScCYP51 = test: MIC80 determination, strain Y2411; assay type: cell-based, S. cerevisiae; conditions: Saccharomyces cerevisiae; for MIC80: strain Y2411 Endog. ScCYP51, SD pH 6.8, 30 °C, 48 h; for MIC: supplement csv, read-out: MIC (nM) S. cerevisiae Y2411
Description: as §3

Y525 OE CaMDR1a = test: MIC80 determination, strain Y525; assay type: cell-based, S. cerevisiae; conditions: for MIC80: Saccharomyces cerevisiae, 48 h, pH 6.8; for MIC: read-out: MIC (nM) C. albicans model Y525
Description: as §3

Y2513 OE ScCYP51 Y140H = test: MIC80 determination, strain Y2513; assay type: cell-based, S. cerevisiae; conditions: Saccharomyces cerevisiae; for MIC80: 48 h, pH 6.8; for MIC: read-out: MIC (nM) S. cerevisiae Y2513
Description: as §3

[4] = test system: Y2746 OE AfCYP51A AfCPR AfERG6; test: MIC80 determination, strain Y2746; assay type: cell-based, S. cerevisiae; conditions: Saccharomyces cerevisiae
Description: as §3

[5] = test system: Y525 MFS efflux pump CaMDR1a overexpressed; test: Agarose (disk) diffusion assay, strain Y525; assay type: cell-based, S. cerevisiae; conditions: 10 nmol/disk, 30 °C, 48 h
Description: as §1, §2

SMILES	zone of growth inhibition (inhibitory activity in words) [1]	zone of growth inhibition (inhibitory activity in words) [2]	MIC80 (Y433 OE CgCDR1) [µM]	MIC80 (Y2459 OE CaCYP51 CaCpr) [µM]	MIC (Y2459 OE CaCYP51 CaCpr) [nM]	MIC80 (Y610 FHB1) [µM]	MIC80 (Y2300 OE ScCYP51) [µM]	MIC (Y2300 OE ScCYP51) [nM]	MIC80 (Y611 FHB3) [µM]	MIC80 (Y2374 OE CgCYP51) [µM]	MIC (Y2374 OE CgCYP51) [nM]	MIC (Y71 SC5314) [nM]	MIC80 (Y71 SC5314) [µM]	MIC (Y570 OE CaCDR1B) [nM]	MIC80 (Y570 OE CaCDR1B) [µM]	MIC80 (Y1) [µM]	MIC80 (Y2301 OE ScCYP51 Y140F) [µM]	MIC (Y2301 OE ScCYP51 Y140F) [nM]	MIC80 (Y2411 Endog. ScCYP51) [µM]	MIC (Y2411 Endog. ScCYP51) [nM]	other results
O=C(NCC(O)(Cn1cncn1)c1ccc(F)cc1F)c1cnc2ccccc2c1 (stereo not shown) [Compound 15, N-(2-(2,4-Difluorophenyl)-2-hydroxy-3-(1H-1,2,4-triazol-1-yl)propyl)quinoline-3-carboxamide]	showed activity	showed activity																			
O=C(NCC(O)(Cn1cncn1)c1ccc(F)cc1F)c1cccc(-c2ccc(C(F)(F)F)cc2)c1 (stereo not shown) [Compound 23, N-(2-(2,4-Difluorophenyl)-2-hydroxy-3-(1H-1,2,4-triazol-1-yl)propyl)-4’-(trifluoromethyl)-[1,1’-biphenyl]-3-carboxamide]	significantly greater resistance	significantly greater resistance	13.1	0.06 ± 0.011	60 ± 11	0.4 ± 0.113	0.069 ± 0.039	69 ± 39	4.25	0.076 ± 0.012	76 ± 12	100	0.1	8100	8.1	0.12	0.411 ± 0.071	411 ± 71	0.037 ± 0.011	37 ± 11	MIC (Y2649 OE CYP51 F1 RaCPR): 32 ± 19 nM; MIC80 (Y2649 OE CYP51 F1 RaCPR): 0.032 ± 0.019 µM; MIC80 (2711 CnCYP51 OE CnCPR): 0.02 µM; MIC (2711 CnCYP51 OE CnCPR): 20 nM; increase in resistance owing to the CpCYP51 Y132F mutation (Y2716 OE CpCYP51 Y132F): > 19 fold; MIC80 (Y2716 OE CpCYP51 Y132F): 1.91 ± 0.02 µM; MIC80 (Y2721 OE CpCYP51): 0.055 ± 0.003 µM; MIC (Y2721 OE CpCYP51): 55 ± 3 nM; MIC80 (Y2651 OE CYP51 F5 RaCPR): 2.57 ± 0.938 µM; MIC [3]: 150 ± 26 nM; MIC80 [3]: 0.15 ± 0.026 µM; MIC80 (Y525 OE CaMDR1a): 0.44 µM; MIC (Y525 OE CaMDR1a): 440 nM; MIC80 (Y2513 OE ScCYP51 Y140H): 0.805 ± 0.121 µM; MIC (Y2513 OE ScCYP51 Y140H): 805 ± 121 nM; MIC80 [4]: 3.52 ± 0.209 µM
O=C(NCC(O)(Cn1cncn1)c1ccc(F)cc1F)c1cccc(-c2ccc(OC(F)(F)F)cc2)c1 (stereo not shown) [Compound 24, N-(2-(2,4-Difluorophenyl)-2-hydroxy-3-(1H-1,2,4-triazol-1-yl)propyl)-4’-(trifluoromethoxy)-[1,1’-biphenyl]-3-carboxamide]	significantly greater resistance	significantly greater resistance	11.8	0.116 ± 0.061	116 ± 61	0.37 ± 0.042	0.163 ± 0.061	163 ± 61	3.4	0.168	168	85	0.085	17000	17	0.12	0.419 ± 0.083	419 ± 83	0.03	30	MIC (Y2649 OE CYP51 F1 RaCPR): 16 nM; MIC80 (Y2649 OE CYP51 F1 RaCPR): 0.016 µM; MIC80 (2711 CnCYP51 OE CnCPR): 0.002 µM; MIC (2711 CnCYP51 OE CnCPR): 2 nM; increase in resistance owing to the CpCYP51 Y132F mutation (Y2716 OE CpCYP51 Y132F): > 19 fold; MIC80 (Y2716 OE CpCYP51 Y132F): 1.75 µM; MIC80 (Y2721 OE CpCYP51): 0.094 µM; MIC (Y2721 OE CpCYP51): 94 nM; MIC80 (Y2651 OE CYP51 F5 RaCPR): 1.4 µM; MIC [3]: 50 nM; MIC80 [3]: 0.05 µM; MIC80 (Y525 OE CaMDR1a): 0.43 µM; MIC (Y525 OE CaMDR1a): 430 nM; MIC80 (Y2513 OE ScCYP51 Y140H): 0.719 ± 0.001 µM; MIC (Y2513 OE ScCYP51 Y140H): 719 ± 1 nM; MIC80 [4]: 2.7 µM
O=C(NCC(O)(Cn1cncn1)c1ccc(F)cc1F)c1ccc(NC(=O)c2ccc(Cl)cc2)cc1 (stereo not shown) [Compound 26, 4-Chloro-N-(4-((2-(2,4-difluorophenyl)-2-hydroxy-3-(1H-1,2,4-triazol-1-yl)propyl)carbamoyl)phenyl)benzamide]			> 40	0.118 ± 0.003	118 ± 3	0.95	0.182 ± 0.03	182 ± 30	19.5	0.205	205	208 ± 83	0.208 ± 0.083	> 40000	> 40	0.285	0.123 ± 0.038	123 ± 38	0.039 ± 0.014	39 ± 14	zone of growth inhibition (inhibitory activity in words) [5]: less effective; MIC80 (Y525 OE CaMDR1a): > 1 µM; MIC (Y525 OE CaMDR1a): > 1000 nM; MIC80 (Y2513 OE ScCYP51 Y140H): 0.087 ± 0.004 µM; MIC (Y2513 OE ScCYP51 Y140H): 87 ± 4 nM
